Data: PMC8750527 (Cancers, 2021)
Like-named read-outs stand apart in the source and are kept apart here.

Assays:
D458 = assay: MTT assay, 48 h exposure, D458 MB cells; type: cell-based, human; conditions: for IC50: Homo sapiens, MTT, 48 h exposure, mean ± SEM
Method: (§1) HDF (3000 cells), C8-D1A (5000 cells), D458 (5000 cells), DAOY (2000 cells), HD-MB03 (10,000 cells) and CHLA-01-Med (10,000 cells) were seeded at an approximate confluency of 50% in 96-well plates (Corning Inc., Corning, NY, USA) in 100 µL medium per well. A range from 50 nM to 150 µM of every drug was tested. The effects of the antiangiogenic compounds were measured using a 3-[4,5-dimethylthiazol-2yl]-diphenyltetrazolium bromide (MTT) colorimetric assay (Sigma, Lyon, France) according to the manufacturer’s instructions. When applicable, IC50 was calculated using the nonlinear regression method of the Prism 5 software (Graphpad Software Inc., San Diego, CA, USA). […] An MTT assay was conducted as described above to assess the fitness of the cells.

CHLA-01-Med = assay: MTT assay, 48 h exposure, CHLA-01-Med MB cells; type: cell-based, human
Method: as §1

HD-MB03 [1] = assay: MTT assay, 48 h exposure, HD-MB03 MB cells; type: cell-based, human; conditions: for IC50: Homo sapiens, HD-MB03, MTT, 48 h exposure, mean ± SEM
Method: as §1

C8-D1A = assay: MTT assay, 48 h exposure, murine primary astrocytes; type: cell-based; conditions: Mus musculus, C8-D1A
Method: as §1

C8-D1A astrocytes = assay: Cell viability, propidium iodine incorporation, C8-D1A; type: cell-based, murine; conditions: 48 h; axitinib, cabozantinib, sunitinib 5 µM, etoposide 1 µM
Method: (§2) Cell viability assays were conducted using a propidium iodine incorporation technique with an ADAM-sHIT automated cell counter (NanoEnTek, Gyeonggi-do, Korea) according to the manufacturer’s protocol.

DAOY [2] = assay: MTT assay, 48 h exposure, DAOY MB cells; type: cell-based, human; conditions: for IC50: Homo sapiens, Daoy, MTT, 48 h exposure, mean ± SEM
Method: as §1

HDF = assay: MTT assay, 48 h exposure, human dermal fibroblasts; type: cell-based; conditions: Homo sapiens, HDF, Table 1, normal cells, mean ± SEM
Method: as §1

MB cells [3] = assay: Cell viability, propidium iodine incorporation, MB cells; type: cell-based, human; conditions: 48 h, 5 µM
Method: as §2

[4] = tested on: HD-MB03 intracranial tumors
Method: HD-MB03-Luc spheroids were stereotaxically implanted into the brains of 9-week-old Rj:NMRI-Foxn1 nude (nu/nu) female mice (Janvier Labs, Le Genest-Saint-Isle, France). Briefly, MB spheroids were generated with 2500 cells grown for 48 h in ultralow-adhesion spheroid 96-well plates (Corning, Corning, NY, USA) and three spheroids per mouse were implanted into the left cerebellar hemisphere (2 mm posterior, 1.5 mm left of the lambda point and 2.5 mm deep) using a Hamilton syringe fitted with a needle (Hamilton, Bonaduz, Switzerland) and following the procedure already described. […] Oral gavage with a vehicle solution was used as the control. Mouse survival was based on the presence of neuropathological symptoms including gait defects and a loss of weight over 10% as endpoints. A minimum of five mice per group was chosen to yield sufficient statistical power (p < 0.05, one-way ANOVA). These experiments were carried out in strict accordance with the recommendations in the Guide for the Care and Use of Laboratory Animals. Our experiments were approved by Direction de l’Action Sanitaire et Sociale of the Principality of Monaco and the ethics committee of Centre Scientifique de Monaco.
(§3) Tumor samples were recovered from the animals and embedded in the OCT compound according to the manufacturer’s protocol (Thermo Fisher Scientific Inc., Waltham, MA, USA). After that, 5 µm thin sections were prepared with a cryostat (Leica Microsystems, Wetzlar, Germany). Incubation was carried out with the following antibodies diluted at 1:1000 in TBS supplemented with 1% horse serum and 1% BSA for 20 min at room temperature: anti-Ki67 (cat. number ab16667, Abcam, Cambridge, UK), anti-CD31 (cat. number 550274, BD Biosciences, Frankton Lake, NJ, USA) or anti-αSMA (cat. number A2547, Merck Millipore, Burlington, MA, USA). The preparations were then washed with TBS–0.025% Triton, incubated with anti-rabbit Alexa488 and anti-mouse Alex-555-coupled secondary antibodies (Cell Signaling Technology, Danvers, MA, USA), washed with TBS–0.025% Triton, and the nuclei were counterstained with Hoechst33342 (Thermo Fisher Scientific, Waltham, MA, USA). Fluorescence images of the cells were taken with a DMI400 inverted microscope equipped with a 40× objective (Leica Microsystemes, Nanterre, France) and a Zyla 5.5 camera (Andor Technologies, Belfast, UK) powered by the Micromanager software. At least one cross-section of nonoverlapping images of each tumor was acquired. All the images were then quantified with the CellProfiler 3.0 software.

[5] = tested on: C8-D1A/HD-MB03 mixed spheroids; assay: 3D mixed spheroids of astrocytes and MB cells; type: cell-based; conditions: 7 days; axitinib 5 µM or etoposide 1 µM
Method: C8-D1A cells were stained with the green fluorescent probe neuro-DiO (cat. number 60015, Biotium, Fremont, CA, USA) according to the manufacturer’s protocol. C8-D1A-neuroDio cells (150,000) and HD-MB03-mCherry or DAOY-mCherry cells (50,000) were plated in 12-well plates. […] Fluorescence images of the cells were taken with a DMI400 inverted microscope (Leica Microsystemes SAS, Nanterre, France) equipped with a 40× objective and a Zyla 5.5 camera (Andor Technologies, Belfast, UK). The cells were then trypsinized and the number of both cell types was quantified using a Melody FACS (BD Biosciences, Frankton Lake, NJ, USA) with a 488 nm laser beam. Analysis of the FACS data was conducted with the Flowjo software (Tree Star Inc., Ashland, OR, USA).
Two thousand cells were seeded in ultralow-adhesion 96-well plates (Corning Inc., Corning, NY, USA). […] Pictures were taken with an AMG Evos microscope 40× objective (Thermo Fisher Scientific Inc, Waltham, MA, USA) and the spheroid areas were measured using the ImageJ software (NIH, Bethesda, MD, USA).

DAOY [6] = assay: Cumulative population doubling (CPD), DAOY; type: cell-based, human; conditions: continuous treatment; axitinib 5 µM, etoposide 1 µM
Method: (§4) Cumulative population doubling (CPD) was assessed as previously described. Briefly, depending on the cell line, a variable number of cells corresponding to about 30% confluency were seeded in triplicate in 60 mm diameter Petri dishes. […] The cells were harvested when the confluency reached about 90%, counted and plated again at a dilution of 1/20. CPD was calculated as previously described.

MB cells [7] = assay: Proliferation index assay, MB cells; type: cell-based, human; conditions: after 120 h; axitinib 5 µM, etoposide 1 µM
Method: DAOY, D458, D283, C8-D1A and HDF (30,000 cells per well) and HD-MB03 (50,000 cells per well) were seeded in 24-well plates for proliferation assays.

HD-MB03 [8] = assay: Cumulative population doubling (CPD), HD-MB03; type: cell-based, human; conditions: continuous treatment; axitinib 5 µM, etoposide 1 µM
Method: as §4

subcutaneous DAOY tumors = conditions: oral, thrice a week; axitinib 50 mg/kg, etoposide 30 mg/kg, combination 25 + 15 mg/kg
Method: For subcutaneous xenograft experiments, tumor cells expressing the luciferase (350,000 HDMB-Luc cells and 1.10^6 DAOY-Luc cells) were resuspended in 200 µL of 5 µg/mL Matrigel (Corning Inc., Corning, NY, USA) and injected subcutaneously in the flank of 5-week-old Rj:NMRI-Foxn1 nude (nu/nu) female mice (Janvier Labs, Le Genest-Saint-Isle, France). Saline solution (NaCl 0.9M; 100 µL) containing 30 mg/mL D-Luciferin (Perkin Elmer, Wellesley, MA, USA) was injected intraperitoneally in the animals and the bioluminescence was quantified using an In Vivo Imaging System (Perkin Elmer, Wellesley, MA, USA) according to the manufacturer’s instructions. Tumor volume (V = L × l2 × 0.52) was determined with a caliper and the endpoint was determined as a tumor volume of 1000 mm^3. […] The mice were sacrificed when the tumor reached 1000 mm^3. […]
(§5) The growth rate of the tumors generated with HD-MB03 cells was determined using a linear regression method applied to the growth curves between the sizes of 400 mm^3 up to the endpoint using Prism 5 (Graphpad Software Inc., San Diego, CA, USA).
Tumor samples were recovered from the animals and embedded in the OCT compound according to the manufacturer’s protocol (Thermo Fisher Scientific Inc., Waltham, MA, USA). […] All the images were then quantified with the CellProfiler 3.0 software.

[9] = tested on: subcutaneous HD-MB03 tumors; assay: Subcutaneous HD-MB03 xenografts; type: in vivo, mouse; conditions: oral, thrice a week
Method: For subcutaneous xenograft experiments, tumor cells expressing the luciferase (350,000 HDMB-Luc cells and 1.10^6 DAOY-Luc cells) were resuspended in 200 µL of 5 µg/mL Matrigel (Corning Inc., Corning, NY, USA) and injected subcutaneously in the flank of 5-week-old Rj:NMRI-Foxn1 nude (nu/nu) female mice (Janvier Labs, Le Genest-Saint-Isle, France). Saline solution (NaCl 0.9M; 100 µL) containing 30 mg/mL D-Luciferin (Perkin Elmer, Wellesley, MA, USA) was injected intraperitoneally in the animals and the bioluminescence was quantified using an In Vivo Imaging System (Perkin Elmer, Wellesley, MA, USA) according to the manufacturer’s instructions. Tumor volume (V = L × l2 × 0.52) was determined with a caliper and the endpoint was determined as a tumor volume of 1000 mm^3. […] The mice were sacrificed when the tumor reached 1000 mm^3. […] No statistical methods were used to predetermine the sample size of the experiments. Animal facility availability and cost were used to determine sample sizes. Two independent cohorts of five mice per group were used for the tumor growth experiment with HD-MB03 cells and one cohort of five mice per group was used for the experiment with DAOY cells. Animal experiments were carried out in strict accordance with the recommendations in the Guide for the Care and Use of Laboratory Animals. Our experiments were approved by Direction de l’Action Sanitaire et Sociale of the Principality of Monaco and the ethics committee of Centre Scientifique de Monaco.
as §5, §3

[10] = axitinib 50 mg/kg, etoposide 30 mg/kg, combination 25 + 15 mg/kg

## CCN(CC)CCNC(=O)c1c(C)[nH]c(/C=C2\C(=O)Nc3ccc(F)cc32)c1C [Sunitinib, sunitinib]
D458; Table 1
  IC50: 4.2 ± 0.3 µM
D458; ratio IC50 C8-D1A / IC50 D458
  Specificity Index relative to C8D1A, D458: 1.36
D458; ratio IC50 HDF / IC50 D458
  Specificity Index relative to HDF, D458: 0.43
CHLA-01-Med; Homo sapiens, Table 1, MTT, 48 h exposure, mean ± SEM
  IC50: 7.5 ± 0.8 µM
CHLA-01-Med; ratio IC50 C8-D1A / IC50 CHLA-01-Med
  Specificity Index relative to C8D1A, CHLA-01-Med: 0.76
CHLA-01-Med; ratio IC50 HDF / IC50 CHLA-01-Med
  Specificity Index relative to HDF, CHLA-01-Med: 0.24
HD-MB03 [1]; Table 1
  IC50: 4.6 ± 0.3 µM
HD-MB03 [1]; ratio IC50 C8-D1A / IC50 HD-MB03
  Specificity Index relative to C8D1A, HDMB: 1.24
HD-MB03 [1]; ratio IC50 HDF / IC50 HD-MB03
  Specificity Index relative to HDF, HD-MB03: 0.39
C8-D1A; Table 1, normal cells, mean ± SEM, read-out: IC50 (µM) C8D1A
  IC50: 5.7 ± 2.2 µM
C8-D1A astrocytes
  viability of C8-D1A normal cells: strongly induced the death
DAOY [2]; Table 1
  IC50: 7.9 ± 5.5 µM
DAOY [2]; ratio IC50 C8-D1A / IC50 DAOY
  Specificity Index relative to C8D1A, DAOY: 0.72
DAOY [2]; ratio IC50 HDF / IC50 DAOY
  Specificity Index relative to HDF, DAOY: 0.23
HDF
  IC50: 1.8 ± 0.04 µM
MB cells [3]
  viability of MB cells: decreased the viability of most MB cells

## COc1cc([C@@H]2c3cc4c(cc3[C@@H](O[C@@H]3O[C@@H]5CO[C@@H](C)O[C@H]5[C@H](O)[C@H]3O)[C@H]3COC(=O)[C@H]23)OCO4)cc(OC)c1O [Etoposide, etoposide]
[4]; metronomic oral treatment
  number of CD31-positive and αSMA-positive double-stained structures (vessels covered with pericytes): decreased the number
[4]; oral, five times a week, axitinib 50 mg/kg, etoposide 30 mg/kg, combination 25 + 15 mg/kg
  survival of mice with intracranial tumors: no significant effect on survival
[5]
  size of mixed spheroids: strong decrease in the size of spheroids
DAOY [6]
  long-term proliferation (CPD) of DAOY cells: strongly impaired their proliferation
D458; Table 3
  IC50: 0.52 ± 0.15 µM
HD-MB03 [1]; Table 3
  IC50: 0.09 ± 0.006 µM
C8-D1A; Table 3, mean ± SEM
  IC50: 2.2 ± 0.6 µM
MB cells [7]
  reduction of proliferation of MB cells: more than 80%
DAOY [2]; Table 3
  IC50: 0.2 µM
HD-MB03 [8]
  long-term proliferation (CPD) of HD-MB03 cells: strongly impaired their proliferation
Subcutaneous DAOY tumors
  tumor growth (lognormal mathematical modelling): decreased tumor growth rates
[9]
  number of endothelial cells (CD31-positive) and/or pericytes/cancer-associated fibroblasts (αSMA-positive): did not impact
[9]; [10]
  median time to reach the endpoint volume (1000 mm^3): 18 days
  range of time to reach the endpoint volume (1000 mm^3): 11 to 60 days
